How the values were obtained:
[1] = test system: mutant VCP (mVCP) mice; experiment: In vivo physiology of EDL muscle: motor unit counts and maximal tetanic force; set-up: species or system mouse; details: 4 to 14 months, FIG. 1
Experimental: (§1) Arimoclomol treatment: Male mutant VCP (mVCP) mice were treated with Arimoclomol (120 mg/kg daily; orally in drinking water), from the start of symptom onset at 4 months, until close to end-stage at 14 months. Transgenic mice over-expressing wild-type human VCP (wt-VCP) were used as controls, and 10 male mice per group were studied; a sample size sufficient to test for statistical significance at P<0.05 in a single sex group.
In vivo physiology was carried out acutely at 14 months of age on terminally anaesthetized mice to quantify the number of motor units in the extensor digitorum longus (EDL) muscle in the hindlimb of mice in all experimental groups. Briefly, Isometric contractions were elicited by stimulating the Extensor Digitorum Longus (EDL) motor nerve using pulses of 0.02 ms duration and supramaximal intensity via electrodes. Contractions were elicited by stimulation of the sciatic nerve. The number of motor units in the EDL muscles was determined by stimulating the motor nerve with stimuli of increasing intensity, resulting in stepwise increments in twitch tension because of successive recruitment of motor axons.

[2] = test system: mutant VCP (mVCP) mice; experiment: Motor neuron counts and area measurements, sciatic pool of spinal cord; type: in vivo, mouse; details: 120 mg/kg daily orally, 4 to 14 months, FIG. 2
Experimental: as §1
20 μm spinal cord sections from L3-L6 were stained with gallocyanin to visualise neurons for quantification (5 mice per group). […] 20 images of the sciatic pool regions of the spinal cord were taken per animal to measure the size distribution of motor neurons present in this area (at ×20 magnification). A minimum of 3 mice per experimental group were assessed. The soma area of motor neurons was determined by drawing around individual Nissl stained (gallocyanin) motor neuron cell bodies in cross-sectional images of L4-L5 region of the spinal cord. This was recorded using Leica Application Suite V3.8 analysis software and presented as a percentage of the total number of motor neurons per group.

[3] = test system: mutant VCP (mVCP) mice; experiment: Immunohistochemistry of brain and spinal cord for pathology markers (TDP-43, ubiquitin, p-tau, p62, LC3, myelin, stress granule markers); type: in vivo, mouse; details: 120 mg/kg daily orally, 4 to 14 months
Experimental: as §1
(§2) Brain and spinal cords were harvested from mice in all experimental groups following transcardial perfusion with saline followed by 4% paraformaldehyde (PFA). Brain and spinal cords were then kept in 4% PFA for 12 hours before being transferred to a 30% sucrose solution. Cross-sections of brain and spinal cords were cut at 20 μm and blocked in 10% Normal Goat serum with 0.1% Triton X100 in PBS before primary antibodies were added for 1 hour at room temperature. Primary antibodies: Rabbit anti-TDP-43 [1:500], Rabbit anti-ubiquitin [1:500], mouse anti-phospho tau (AT8) [1:100], Rabbit/mouse anti-Beta-3 tubulin [1:100], mouse anti-HSP70 [1:100], Mouse anti-p62 [1:200], Rabbit anti-LC3 [1:500]Rabbit anti-Iba1 [1:100], anti neurofilament 2H3 [1:20], Synaptic vesicle protein [1:20], Fluoromyelin Red myelin stain [1:300]. Fluorescently labelled or biotinylated secondary antibodies were used 1:1000 for 2 hours at room temperature. 4′6-Diamidino-2-Phenylindole, Dihydrochloride (DAPI) was used to counterstain for nuclei in all fluorescent images. Imaging of tissue was using a standard Leica light/fluorescent microscope or a LSM 780 confocal microscope.
(§3) Fluorescent images were visualised under a Leica fluorescent microscope and analysed using Leica Application Suite software (Leica Microsystems, Germany).

[4] = test system: HSP70; experiment: HSP70 immunostaining of brain and spinal cord of mVCP mice; type: in vivo, mouse
Experimental: as §1, §2, §3

[5] = test system: mutant VCP (mVCP) mice; experiment: TUNEL assay for apoptotic cells in brain; type: in vivo, mouse; details: 120 mg/kg daily orally, 4 to 14 months, FIG. 9
Experimental: as §1
Apoptosis in the brain was assessed by Terminal deoxynucleotidyl transferase (TdT) dUTP Nick-End Labeling (TUNEL) assay for apoptotic cells, where nuclei containing double-stranded breaks in the DNA fluoresce green (Fluoroscein-tagged), indicating DNA degradation at the later stage of apoptosis (FIG. 9). In some mVCP mice, TUNEL-positive nuclei in small areas of layer I in the cortex were detected which were not seen in control animals, indicating brain cells undergoing apoptosis.

[6] = test system: iPSC-derived motor neurons from mVCP patients; experiment: TDP-43 immunostaining of mVCP patient iPSC-derived motor neurons; type: cell-based, human; details: 10 μM for 24 hours, FIG. 12 A
Experimental: (§4) iPSCs were maintained on Geltrex (Life Technologies) with Essential 8 Medium media (Life Technologies), and passaged using EDTA (Life Technologies, 0.5 mM). All cell cultures were maintained at 37° C. and 5% carbon dioxide. Motor neuron (MN) differentiation was carried out using a previously published protocol (Hall et al., 2017). Briefly, iPSCs were first differentiated to neuroepithelium by plating to 100% confluency in chemically defined medium consisting of DMEM/F12 Glutamax, Neurobasal, LGlutamine, N2 supplement, non-essential amino acids, B27 supplement, […] (all from Life Technologies) and insulin (Sigma). Treatment with small molecules from day 0-7 was as follows: 1 μM Dorsomorphin (Sigma), 2 μM SB431542 (Sigma), and 3 μM CHIR99021 (Sigma). At day 8, the neuroepithelial layer was enzymatically dissociated using dispase (GIBCO, 1 mg/ml), plated onto Geltrex coated plates and next patterned for 7 days with 0.5 μM retinoic acid and 1 μM Purmorphamine. At day 14 spinal cord MN precursors were treated with 0.1 μM Purmorphamine for a further 4 days before being terminally differentiated in 0.1 μM Compound E (Sigma) to promote cell cycle exit. Cells were treated with 10 μM Arimoclomol for 24 hours following terminal differentiation and fixed in PFA for immuno-labelling.

[7] = test system: HSP70; experiment: HSP70 immunostaining of mVCP patient iPSC-derived motor neurons; type: cell-based, human; details: 10 μM for 24 hours, FIG. 12 B
Experimental: as §4

[8] = test system: mutant VCP (mVCP) mice; details: cited from earlier work
[9] = test system: HSP70; details: treated versus untreated mVCP mice; cited from earlier work
[10] = mVCP mice treated with Arimoclomol, previously published study

SMILES: [O-][n+]1cccc(/C(Cl)=N/OC[C@H](O)CN2CCCCC2)c1 [Arimoclomol, N-[2-hydroxy-3-(1-piperidinyl)-propoxy]-pyridine-1-oxide-3-carboximidoyl chloride]
- number of motor units in EDL muscle (motor unit survival) ([1]; 120 mg/kg daily orally in drinking water): reduction in motor unit survival is prevented
- muscle force generated by the EDL muscle ([1]; 120 mg/kg daily orally, versus untreated mice): significantly greater than in untreated mice
- motor neuron survival in sciatic pool (L3-6) of spinal cord [2]: reduction in motor neuron survival is prevented
- shift towards smaller motor neuron soma size [2]: This shift is not seen
- accumulation of p62 in spinal cord ([3]; FIG. 5): significantly ameliorated
- myelin abnormalities in spinal cord ([3]; FIG. 5): significantly ameliorated
- increased LC3 expression in spinal cord ([3]; FIG. 5 D): significantly ameliorated
- phosphorylated tau-positive (p-tau) extracellular aggregates/lesions in brain ([3]; FIG. 6): prevents the formation of these proteinaceous aggregates
- TDP-43 cytoplasmic mislocalisation in brain and spinal cord ([3]; FIGS. 3 and 4): TDP-43 mislocalisation was reduced
- ubiquitin-positive intracellular aggregates in brain and spinal cord ([3]; FIGS. 5 and 6): prevents the formation of these proteinaceous aggregates
- fluorescence intensity of HSP70 immunoreactivity in spinal cord (quantification) ([4]; mVCP mice treated versus untreated, FIG. 8 B): enhanced
- HSP70 expression in glial cells of spinal cord and brain ([4]; mVCP mice, 120 mg/kg daily orally, 4 to 14 months): increased expression of HSP70
- HSP70 expression in brain and spinal cord ([4]; mVCP mice, 120 mg/kg daily orally, 4 to 14 months, versus untreated mVCP, FIGS. 7 and 8): further augmented
- TUNEL-positive apoptotic cells in brain cortex [5]: prevented the appearance of apoptotic cells
- cytoplasmic mislocalisation of TDP-43 [6]: ameliorated
- HSP70 expression [7]: substantially increased
- maximal tetanic force of EDL muscle ([8]; 14 month old mVCP mice, versus wt-VCP controls, previously published study): prevented this reduction in muscle force
- myofibre atrophy and degeneration [8, 10]: reduced myofibre atrophy and degeneration
- protein aggregation and TDP-43 mislocalisation in skeletal muscle [8, 10]: decreased protein aggregation and TDP-43 mislocalisation
- decline in grip strength relative to body weight ([8]; mVCP mice, 4 to 14 months of age, untreated mVCP 44.1% reduction): no significant decline in grip strength
- expression of HSP70 in muscle (Western blot) [9]: two-fold

From patent US20200085812A1, “HEAT SHOCK PROTEIN INDUCERS AND FRONTOTEMPORAL DISORDERS” (Orphazyme A/S, priority 2017, published 2020)
